Assay results reported in US20240218079A1, “PLASMA KALLIKREIN ANTIBODIES AND USES THEREOF” (Astria Therapeutics, Inc., priority 2021, published 2024).
Counter-ions that a name gives are not always drawn. Like-named read-outs stand apart in the source and are kept apart here. One block for each molecule: values may come before it. Peptide text beside a SMILES is read from it.

How the values were obtained:
Type in all cases: biochemical
[1] = target: T1, Cathepsin G (Homo sapiens, UniProt P08311); test: Serine protease inhibition assay: Cathepsin G; settings: control compound, 10-dose 3-fold serial dilution starting at 10 μM or 100 uM
T1 sequence (P08311 21-244): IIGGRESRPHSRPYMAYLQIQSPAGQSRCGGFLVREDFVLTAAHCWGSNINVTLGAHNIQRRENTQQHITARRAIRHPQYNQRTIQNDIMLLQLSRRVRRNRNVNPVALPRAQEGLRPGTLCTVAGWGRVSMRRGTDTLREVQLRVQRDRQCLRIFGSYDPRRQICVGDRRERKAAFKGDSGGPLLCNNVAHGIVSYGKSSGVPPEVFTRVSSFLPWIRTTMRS
Protocol: (§1) Control compounds were tested in a 10-dose assay with 3-fold serial dilution starting at 10 μM or 100 uM (tPA, Matriptase 2, Kallikrein 5, Kallikrein 2, Kallikrein 1, Granzyme B, and APC). The protease activities were monitored as a time-course measurement of the increase in fluorescence signal from a fluorescently-labeled peptide substrate, and the initial linear portion of the signal slope (signal/min) was analyzed. % Enzyme activity for antibody titrations were calculated respective to vehicle controls in presence of PBS buffer as 100% Activity.
(§2) Empty cells indicate no inhibition or compound activity that could not be fit to an IC50 curve. The IC50 value higher than 1 μM was estimated based on the best curve fitting available.

[2] = target: Granzyme B (Homo sapiens, UniProt P10144); test: Serine protease inhibition assay: Granzyme B; settings: control compound, 10-dose 3-fold serial dilution starting at 10 μM or 100 uM
Sequence of Granzyme B (P10144 21-247, species assumed): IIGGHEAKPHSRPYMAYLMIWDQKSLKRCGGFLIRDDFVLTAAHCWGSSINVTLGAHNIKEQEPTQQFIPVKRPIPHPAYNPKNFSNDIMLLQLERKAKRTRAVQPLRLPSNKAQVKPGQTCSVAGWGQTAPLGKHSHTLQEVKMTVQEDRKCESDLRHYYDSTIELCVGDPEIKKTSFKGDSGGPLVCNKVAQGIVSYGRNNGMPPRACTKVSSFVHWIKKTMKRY
Protocol: as §1, §2

[3] = target: Kallikrein 1 (Homo sapiens, UniProt P06870); test: Serine protease inhibition assay: Kallikrein 1; settings: control compound, 10-dose 3-fold serial dilution starting at 10 μM or 100 uM
Sequence of Kallikrein 1 (P06870 25-262, species assumed): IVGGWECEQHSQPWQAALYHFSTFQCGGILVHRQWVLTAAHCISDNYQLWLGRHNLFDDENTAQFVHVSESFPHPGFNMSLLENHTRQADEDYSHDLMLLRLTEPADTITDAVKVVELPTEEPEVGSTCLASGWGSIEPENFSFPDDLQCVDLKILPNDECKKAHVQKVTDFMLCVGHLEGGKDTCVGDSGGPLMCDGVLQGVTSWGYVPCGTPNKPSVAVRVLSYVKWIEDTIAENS
Protocol: as §1, §2

[4] = target: T2, Factor XIIa (Homo sapiens, UniProt P00748); test: Serine protease inhibition assay: Factor XIIa; settings: control compound, 10-dose 3-fold serial dilution starting at 10 μM or 100 uM
T2 sequence (P00748 373-615 limits assumed): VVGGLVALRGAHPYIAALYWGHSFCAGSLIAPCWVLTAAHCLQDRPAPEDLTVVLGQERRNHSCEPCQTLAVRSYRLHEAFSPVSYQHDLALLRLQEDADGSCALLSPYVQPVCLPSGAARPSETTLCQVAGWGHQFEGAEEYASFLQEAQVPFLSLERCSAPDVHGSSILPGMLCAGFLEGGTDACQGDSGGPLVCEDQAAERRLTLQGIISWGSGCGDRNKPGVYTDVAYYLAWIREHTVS
Protocol: as §1, §2

[5] = target: T3, Factor VIIa (Homo sapiens, UniProt P08709); test: Serine protease inhibition assay: Factor VIIa; settings: control compound, 10-dose 3-fold serial dilution starting at 10 μM or 100 uM
T3 sequence (P08709 213-466 limits assumed): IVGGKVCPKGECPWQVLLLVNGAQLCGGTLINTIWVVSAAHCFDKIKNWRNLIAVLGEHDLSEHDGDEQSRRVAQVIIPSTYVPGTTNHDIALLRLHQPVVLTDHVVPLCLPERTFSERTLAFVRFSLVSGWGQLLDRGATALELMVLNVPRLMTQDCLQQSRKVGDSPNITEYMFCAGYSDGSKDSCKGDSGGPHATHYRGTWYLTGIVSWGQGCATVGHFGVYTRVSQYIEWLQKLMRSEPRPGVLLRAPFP
T3 sequence (P08709 61-212 limits assumed): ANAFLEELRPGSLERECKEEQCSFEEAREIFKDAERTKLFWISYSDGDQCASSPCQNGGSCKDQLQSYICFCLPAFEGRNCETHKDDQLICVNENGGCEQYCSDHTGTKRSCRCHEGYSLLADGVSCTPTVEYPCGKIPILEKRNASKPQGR
Protocol: as §1, §2

[6] = target: Plasmin (Homo sapiens, UniProt P00747); test: Serine protease inhibition assay: Plasmin; settings: control compound, 10-dose 3-fold serial dilution starting at 10 μM or 100 uM
Sequence of Plasmin (P00747 581-810 limits assumed, species assumed): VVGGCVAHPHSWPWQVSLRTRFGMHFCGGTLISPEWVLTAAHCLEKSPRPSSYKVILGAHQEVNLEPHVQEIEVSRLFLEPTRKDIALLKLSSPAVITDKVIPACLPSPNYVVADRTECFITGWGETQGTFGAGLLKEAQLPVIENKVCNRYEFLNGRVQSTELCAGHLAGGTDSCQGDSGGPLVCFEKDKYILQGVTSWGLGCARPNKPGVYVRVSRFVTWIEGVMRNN
Sequence of Plasmin (P00747 97-580 limits assumed, species assumed): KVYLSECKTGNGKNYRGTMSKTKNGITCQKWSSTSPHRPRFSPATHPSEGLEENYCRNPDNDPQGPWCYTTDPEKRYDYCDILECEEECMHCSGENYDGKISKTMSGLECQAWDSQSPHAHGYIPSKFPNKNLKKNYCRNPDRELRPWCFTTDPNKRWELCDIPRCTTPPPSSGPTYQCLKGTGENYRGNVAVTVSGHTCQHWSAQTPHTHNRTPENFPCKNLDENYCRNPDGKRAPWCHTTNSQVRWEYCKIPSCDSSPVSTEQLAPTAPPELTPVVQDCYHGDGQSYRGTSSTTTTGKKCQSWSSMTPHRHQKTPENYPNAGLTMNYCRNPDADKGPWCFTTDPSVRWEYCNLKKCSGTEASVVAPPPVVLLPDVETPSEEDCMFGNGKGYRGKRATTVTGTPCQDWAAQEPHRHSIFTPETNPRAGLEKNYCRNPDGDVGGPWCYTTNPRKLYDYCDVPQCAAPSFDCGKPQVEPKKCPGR
Protocol: as §1, §2

[7] = target: Urokinase (Homo sapiens, UniProt P00749); test: Serine protease inhibition assay: Urokinase; settings: control compound, 10-dose 3-fold serial dilution starting at 10 μM or 100 uM
Protocol: as §1, §2

[8] = target: tPA (Homo sapiens, UniProt P00750); test: Serine protease inhibition assay: tPA; settings: control compound, 10-dose 3-fold serial dilution starting at 10 μM or 100 uM
Sequence of tPA (P00750 36-562, species assumed): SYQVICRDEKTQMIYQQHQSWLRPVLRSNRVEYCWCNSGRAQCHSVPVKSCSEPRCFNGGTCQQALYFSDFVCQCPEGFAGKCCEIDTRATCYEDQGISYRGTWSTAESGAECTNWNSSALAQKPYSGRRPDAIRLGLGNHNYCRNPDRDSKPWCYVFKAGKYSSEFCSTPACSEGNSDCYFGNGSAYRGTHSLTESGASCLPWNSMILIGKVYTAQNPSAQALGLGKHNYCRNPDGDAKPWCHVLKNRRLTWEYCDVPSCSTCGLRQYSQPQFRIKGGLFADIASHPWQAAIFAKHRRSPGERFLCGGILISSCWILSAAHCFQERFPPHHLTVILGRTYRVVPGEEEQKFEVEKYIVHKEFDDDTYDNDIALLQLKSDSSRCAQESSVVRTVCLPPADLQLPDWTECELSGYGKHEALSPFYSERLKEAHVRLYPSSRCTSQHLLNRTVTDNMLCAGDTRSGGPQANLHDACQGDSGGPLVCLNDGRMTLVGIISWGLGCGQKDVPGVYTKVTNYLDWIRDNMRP
Protocol: as §1, §2

[9] = target: Kallikrein 2 (Homo sapiens, UniProt P20151); test: Serine protease inhibition assay: Kallikrein 2; settings: control compound, 10-dose 3-fold serial dilution starting at 10 μM or 100 uM
Sequence of Kallikrein 2 (P20151 25-261, species assumed): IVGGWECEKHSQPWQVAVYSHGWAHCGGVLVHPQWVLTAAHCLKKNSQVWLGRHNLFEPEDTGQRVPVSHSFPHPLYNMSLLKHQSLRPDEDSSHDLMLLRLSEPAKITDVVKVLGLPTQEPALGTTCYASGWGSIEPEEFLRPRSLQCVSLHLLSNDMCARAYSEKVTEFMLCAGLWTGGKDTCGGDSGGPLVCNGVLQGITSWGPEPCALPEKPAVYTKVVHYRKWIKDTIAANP
Protocol: as §1, §2

[10] = target: Thrombin a (Homo sapiens, UniProt P00734); test: Serine protease inhibition assay: Thrombin a; settings: control compound, 10-dose 3-fold serial dilution starting at 10 μM or 100 uM
Protocol: as §1, §2

[11] = target: T4, Kallikrein 5 (Homo sapiens, UniProt Q9Y337); test: Serine protease inhibition assay: Kallikrein 5; settings: control compound, 10-dose 3-fold serial dilution starting at 10 μM or 100 uM
T4 sequence (Q9Y337 23-293): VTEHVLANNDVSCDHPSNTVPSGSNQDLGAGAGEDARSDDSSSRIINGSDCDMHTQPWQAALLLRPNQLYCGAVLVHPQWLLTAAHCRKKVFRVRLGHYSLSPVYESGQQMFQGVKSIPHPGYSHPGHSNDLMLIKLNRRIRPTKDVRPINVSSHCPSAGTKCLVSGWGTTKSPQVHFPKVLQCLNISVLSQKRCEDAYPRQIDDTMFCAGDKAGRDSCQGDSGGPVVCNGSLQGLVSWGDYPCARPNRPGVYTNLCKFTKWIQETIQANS
Protocol: as §1, §2

[12] = target: Hepsin (Homo sapiens, UniProt P05981); test: Serine protease inhibition assay: Hepsin; settings: control compound, 10-dose 3-fold serial dilution starting at 10 μM or 100 uM
Sequence of Hepsin (P05981 whole entry): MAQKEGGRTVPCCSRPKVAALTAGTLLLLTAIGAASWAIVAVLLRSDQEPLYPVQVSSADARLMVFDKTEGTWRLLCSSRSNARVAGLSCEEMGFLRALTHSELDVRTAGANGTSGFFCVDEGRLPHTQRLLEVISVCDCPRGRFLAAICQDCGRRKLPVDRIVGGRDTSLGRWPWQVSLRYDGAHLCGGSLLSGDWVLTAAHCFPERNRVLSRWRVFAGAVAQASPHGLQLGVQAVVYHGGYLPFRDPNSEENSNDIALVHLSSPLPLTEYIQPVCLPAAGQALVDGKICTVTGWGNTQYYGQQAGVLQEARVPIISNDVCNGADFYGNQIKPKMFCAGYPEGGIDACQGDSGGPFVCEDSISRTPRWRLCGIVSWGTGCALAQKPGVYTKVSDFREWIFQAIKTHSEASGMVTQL
Protocol: as §1, §2

[13] = target: T5, Matriptase 2 (Homo sapiens, UniProt Q8IU80); test: Serine protease inhibition assay: Matriptase 2; settings: control compound, 10-dose 3-fold serial dilution starting at 10 μM or 100 uM
T5 sequence (Q8IU80 1-811): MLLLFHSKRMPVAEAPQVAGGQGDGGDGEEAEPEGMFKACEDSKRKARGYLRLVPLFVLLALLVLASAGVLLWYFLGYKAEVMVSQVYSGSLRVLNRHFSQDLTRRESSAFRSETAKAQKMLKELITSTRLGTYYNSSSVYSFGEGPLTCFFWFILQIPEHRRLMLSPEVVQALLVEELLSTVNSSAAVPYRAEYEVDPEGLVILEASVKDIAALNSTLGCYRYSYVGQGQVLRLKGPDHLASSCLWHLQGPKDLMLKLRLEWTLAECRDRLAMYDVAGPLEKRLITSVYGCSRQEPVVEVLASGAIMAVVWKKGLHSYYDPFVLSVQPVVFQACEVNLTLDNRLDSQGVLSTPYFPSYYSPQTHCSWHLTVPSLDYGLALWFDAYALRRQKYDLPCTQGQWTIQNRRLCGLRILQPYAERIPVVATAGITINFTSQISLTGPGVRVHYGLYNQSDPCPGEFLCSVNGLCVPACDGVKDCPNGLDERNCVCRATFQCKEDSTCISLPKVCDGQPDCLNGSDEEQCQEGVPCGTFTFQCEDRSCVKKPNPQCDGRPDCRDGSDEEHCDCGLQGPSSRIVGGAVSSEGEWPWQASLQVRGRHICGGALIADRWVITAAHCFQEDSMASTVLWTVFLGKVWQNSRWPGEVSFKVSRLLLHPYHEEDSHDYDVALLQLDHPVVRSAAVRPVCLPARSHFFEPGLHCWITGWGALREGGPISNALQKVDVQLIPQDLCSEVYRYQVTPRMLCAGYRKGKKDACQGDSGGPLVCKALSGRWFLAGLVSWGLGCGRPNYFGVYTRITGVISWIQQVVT
Protocol: as §1, §2

[14] = target: Activated Protein C (Homo sapiens, UniProt P04070); test: Serine protease inhibition assay: Activated Protein C; settings: control compound, 10-dose 3-fold serial dilution starting at 10 μM or 100 uM
Sequence of Activated Protein C (P04070 212-461 limits assumed): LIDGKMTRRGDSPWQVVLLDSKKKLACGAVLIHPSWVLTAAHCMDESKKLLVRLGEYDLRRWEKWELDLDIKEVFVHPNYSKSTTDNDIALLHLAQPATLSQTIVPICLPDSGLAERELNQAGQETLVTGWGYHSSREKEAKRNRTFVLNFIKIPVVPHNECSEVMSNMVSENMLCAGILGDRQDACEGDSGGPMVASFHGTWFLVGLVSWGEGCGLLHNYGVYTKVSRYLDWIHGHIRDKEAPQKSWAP
Sequence of Activated Protein C (P04070 43-197 limits assumed): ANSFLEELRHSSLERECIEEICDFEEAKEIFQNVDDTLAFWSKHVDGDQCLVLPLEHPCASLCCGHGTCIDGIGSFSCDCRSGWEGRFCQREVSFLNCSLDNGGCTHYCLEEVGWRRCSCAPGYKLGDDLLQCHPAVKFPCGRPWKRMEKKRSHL
Protocol: as §1, §2

[15] = system: trypsin, human pancrease; test: Trypsin inhibition assay; settings: 0.25 nM trypsin, PFR-AMC, 2 hours
Protocol: Fluorescence intensity was measured every 5 minutes. Gabexate mesylate was used as a positive control, in a dilution series starting at 1 μM. The assay was performed in duplicate.

[16] = target: T6, Kallikrein 12 (Homo sapiens, UniProt Q9UKR0); test: Serine protease inhibition assay: Kallikrein 12; settings: control compound, 10-dose 3-fold serial dilution starting at 10 μM or 100 uM
T6 sequence (Q9UKR0 18-248): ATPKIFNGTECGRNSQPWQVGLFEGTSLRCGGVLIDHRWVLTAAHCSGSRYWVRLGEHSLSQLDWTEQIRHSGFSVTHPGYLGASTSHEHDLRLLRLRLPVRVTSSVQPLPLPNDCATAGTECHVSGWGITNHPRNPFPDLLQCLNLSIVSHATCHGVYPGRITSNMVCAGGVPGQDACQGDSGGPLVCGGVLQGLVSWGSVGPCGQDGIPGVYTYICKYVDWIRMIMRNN
Protocol: as §1, §2

Molecule: CC(C)C[C@H](NC(=O)[C@@H](NC(=O)N[C@@H](Cc1ccccc1)C(=O)O)[C@@H]1CCN=C(N)N1)C(=O)N[C@H](C=O)Cc1ccccc1 [Chymostatin]
IC50 [1]: 4090 nM

Molecule: N=C(N)c1ccc2cc(OC(=O)c3ccc(N=C(N)N)cc3)ccc2c1 [Nafamostat mesylate]
IC50 [4]: 23.2 nM

Molecule: N=C(N)c1ccc2nc(-c3cc(CC(=O)N[C@@H](CC(=O)O)C(=O)O)cc(-c4cc(S(N)(=O)=O)ccc4O)c3O)[nH]c2c1 [PCI 27483]
IC50 [5]: 141 nM

Molecule: Gabexate mesylate [Gabexate mesylate (GM)]
IC50 [6]: 253 nM
IC50 [7]: 16.5 nM
IC50 [8]: 1060 nM
IC50 [9]: 139 nM
IC50 [10]: 837 nM
IC50 [11]: 8730 nM
IC50 [12]: 51 nM
IC50 [13]: 201 nM
IC50 [14]: 64.8 nM
IC50 ([15]; read-out: Compound IC50 (M) Data 1): 2.13e-09 M
IC50 ([15]; read-out: Compound IC50 (M) Data 2): 2.33e-09 M
IC50 [16]: 32.5 nM

Further lines, results first:

IC50 [2]: 178 nM
Molecule: CC[C@H](C)[C@H](NC(C)=O)C(=O)N[C@@H](CCC(=O)O)C(=O)N[C@H](C(=O)N[C@H](C=O)CC(=O)O)[C@@H](C)O [IETD-CHO] (Ac-IETD-aldehyde; N-terminus assumed)

IC50 [3]: 2990 nM
Molecule: CC(=O)N[C@@H](CC(C)C)C(=O)N[C@@H](CC(C)C)C(=O)N[C@H](C=O)CCCNC(=N)N [Leupeptin]
